According to article PMC9228270, “Design, Synthesis, In Silico Studies and Inhibitory Activity towards Bcr-Abl, BTK and FLT3-ITD of New 2,6,9-Trisubstituted Purine Derivatives as Potential Agents for the Treatment of Leukaemia” (Pharmaceutics, 2022):
“And” between values parts separate entries of the source, which are not always exact repeats. Identical values can stand only once. Like-named read-outs stand apart in the source and are kept apart here.

What was measured:
Bcr-Abl1 = Bcr-Abl1 (Homo sapiens, UniProt P00519); test: Recombinant kinase radioassay, Abl; format: biochemical; conditions: ATP 1 µM, at least three independent experiments, range 0.01–100 µM
Method: (§1) Recombinant kinase inhibition was measured using standard radioassay. Bcr-Abl1 and Cdk-2/cyclin E kinases were produced in-house, FLT3-ITD and BTK were purchased from ProQinase. The kinases were assayed with suitable substrates (500 µM peptide […] for Abl, 1 mg/mL histone H1 for Cdk-2, 100 µM poly (Glu:Tyr; 4:1)) in the presence of ATP (1 µM for Bcr-Abl, 15 µM for Cdk-2 and BTK), 0.05 µCi [γ-^33P]ATP and the test compound in reaction buffer (60 mM HEPES-NaOH, pH 7.5, 3 mM MgCl2, 3 mM MnCl2, 3 µM Na orthovanadate, 1.2 mM DTT, 2.5 µg/50 µL PEG20.000). The reactions were stopped by adding 3% aq. H3PO4. P-81 phosphocellulose (Whatman) was used to separate phosphorylated substrates. Kinase activity was quantified using a FLA-7000 digital image analyser.

BTK = target: T1, BTK (Homo sapiens, UniProt Q06187); test: Recombinant kinase radioassay, BTK; format: biochemical
T1 construct: purchased ProQinase
Method: as §1

FLT3-ITD = target: T2, FLT3-ITD (Homo sapiens, UniProt P36888, ITD); test: Recombinant kinase radioassay, FLT3-ITD; format: biochemical
T2 sequence (P36888 27-993): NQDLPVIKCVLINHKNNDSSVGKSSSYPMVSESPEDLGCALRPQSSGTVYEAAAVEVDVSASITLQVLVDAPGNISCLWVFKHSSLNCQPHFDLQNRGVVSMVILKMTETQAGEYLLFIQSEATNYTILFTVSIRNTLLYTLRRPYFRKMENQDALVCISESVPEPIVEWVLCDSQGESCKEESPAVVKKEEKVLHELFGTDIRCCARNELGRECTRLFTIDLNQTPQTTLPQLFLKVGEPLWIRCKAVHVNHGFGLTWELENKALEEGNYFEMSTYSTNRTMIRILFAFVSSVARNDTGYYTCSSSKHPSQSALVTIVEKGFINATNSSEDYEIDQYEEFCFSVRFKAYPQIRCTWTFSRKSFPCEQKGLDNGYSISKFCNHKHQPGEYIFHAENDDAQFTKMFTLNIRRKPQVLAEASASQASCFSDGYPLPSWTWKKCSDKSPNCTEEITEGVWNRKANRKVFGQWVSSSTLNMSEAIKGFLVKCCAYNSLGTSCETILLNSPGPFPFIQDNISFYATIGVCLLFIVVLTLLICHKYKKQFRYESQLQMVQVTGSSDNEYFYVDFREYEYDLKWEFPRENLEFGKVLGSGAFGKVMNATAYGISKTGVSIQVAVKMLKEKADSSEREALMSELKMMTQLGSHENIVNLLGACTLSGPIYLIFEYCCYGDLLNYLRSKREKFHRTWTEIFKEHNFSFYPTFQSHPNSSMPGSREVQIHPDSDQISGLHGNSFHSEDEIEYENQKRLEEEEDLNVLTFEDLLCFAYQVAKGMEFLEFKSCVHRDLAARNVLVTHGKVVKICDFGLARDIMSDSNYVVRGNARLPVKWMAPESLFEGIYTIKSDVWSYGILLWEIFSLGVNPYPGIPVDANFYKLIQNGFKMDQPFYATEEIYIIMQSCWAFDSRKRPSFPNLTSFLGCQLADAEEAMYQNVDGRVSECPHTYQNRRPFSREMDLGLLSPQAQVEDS
Method: as §1

Cdk-2/cyclin E = target: T3, Cdk-2/cyclin E (Homo sapiens, UniProt P24941); test: Recombinant kinase radioassay, Cdk-2/cyclin E; format: biochemical; conditions: ATP 15 µM, at least three independent experiments, range 0.01–100 µM
T3 construct: made in house
Method: as §1

K562 = test: Cytotoxicity assay (resazurin), K562; format: cell-based; conditions: Homo sapiens, 72 h, three independent experiments, range 0.1 to 25 µM
Method: (§2) Cytotoxicity assays for the purines were quantified using the resazurin method, a dye to measure redox reactions occurring in the mitochondria of live cells. The cells were treated by tested compounds (in triplicate, six different doses) for 72 h.

HL-60 = test: Cytotoxicity assay (resazurin), HL-60; format: cell-based; conditions: Homo sapiens, 72 h, three independent experiments, range 0.1 to 25 µM
Method: as §2

MV4-11 = test: Cytotoxicity assay (resazurin), MV4-11; format: cell-based; conditions: Homo sapiens, 72 h, three independent experiments, range 0.1 to 25 µM
Method: as §2

Ramos = test: Cytotoxicity assay (resazurin), Ramos; format: cell-based; conditions: Homo sapiens, 72 h, three independent experiments, range 0.1 to 25 µM
Method: as §2

CEM = test: Cytotoxicity assay (resazurin), CEM; format: cell-based; conditions: Homo sapiens, CCRF-CEM, 72 h, three independent experiments, range 0.1 to 25 µM
Method: as §2

[1] = recombinant kinase, radioassay, ATP 15 µM, at least three independent experiments, range 0.01–100 µM, read-out: IC50 BTK
[2] = recombinant kinase, radioassay, at least three independent experiments, range 0.01–100 µM, read-out: IC50 FLT3-ITD
[3] = -log IC50 in molar concentration, Table S3, read-out: Experimental pIC50, CoMFA BTK (converted)
[4] = -log IC50 in molar concentration, Table S3, read-out: Experimental pIC50, CoMFA FLT3 (converted)

T1 sequence (Q06187 whole entry): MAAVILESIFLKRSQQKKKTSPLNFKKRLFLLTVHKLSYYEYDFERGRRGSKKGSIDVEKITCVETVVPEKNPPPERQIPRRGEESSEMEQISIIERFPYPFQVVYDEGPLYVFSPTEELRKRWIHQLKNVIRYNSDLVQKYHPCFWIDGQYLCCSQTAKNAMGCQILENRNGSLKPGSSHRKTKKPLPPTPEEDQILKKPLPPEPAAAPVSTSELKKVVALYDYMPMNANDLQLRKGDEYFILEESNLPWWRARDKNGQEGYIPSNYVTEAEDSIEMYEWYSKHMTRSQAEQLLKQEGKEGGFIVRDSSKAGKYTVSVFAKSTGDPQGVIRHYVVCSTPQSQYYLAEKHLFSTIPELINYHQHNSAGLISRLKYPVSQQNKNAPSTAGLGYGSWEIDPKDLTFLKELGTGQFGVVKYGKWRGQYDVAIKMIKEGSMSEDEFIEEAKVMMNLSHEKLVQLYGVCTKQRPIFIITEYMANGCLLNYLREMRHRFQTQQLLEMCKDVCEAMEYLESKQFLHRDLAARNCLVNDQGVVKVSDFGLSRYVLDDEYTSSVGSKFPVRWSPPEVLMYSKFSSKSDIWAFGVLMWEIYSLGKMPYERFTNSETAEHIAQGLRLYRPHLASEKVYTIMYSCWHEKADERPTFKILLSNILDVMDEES
Bcr-Abl1, sequence (P00519 27-1130): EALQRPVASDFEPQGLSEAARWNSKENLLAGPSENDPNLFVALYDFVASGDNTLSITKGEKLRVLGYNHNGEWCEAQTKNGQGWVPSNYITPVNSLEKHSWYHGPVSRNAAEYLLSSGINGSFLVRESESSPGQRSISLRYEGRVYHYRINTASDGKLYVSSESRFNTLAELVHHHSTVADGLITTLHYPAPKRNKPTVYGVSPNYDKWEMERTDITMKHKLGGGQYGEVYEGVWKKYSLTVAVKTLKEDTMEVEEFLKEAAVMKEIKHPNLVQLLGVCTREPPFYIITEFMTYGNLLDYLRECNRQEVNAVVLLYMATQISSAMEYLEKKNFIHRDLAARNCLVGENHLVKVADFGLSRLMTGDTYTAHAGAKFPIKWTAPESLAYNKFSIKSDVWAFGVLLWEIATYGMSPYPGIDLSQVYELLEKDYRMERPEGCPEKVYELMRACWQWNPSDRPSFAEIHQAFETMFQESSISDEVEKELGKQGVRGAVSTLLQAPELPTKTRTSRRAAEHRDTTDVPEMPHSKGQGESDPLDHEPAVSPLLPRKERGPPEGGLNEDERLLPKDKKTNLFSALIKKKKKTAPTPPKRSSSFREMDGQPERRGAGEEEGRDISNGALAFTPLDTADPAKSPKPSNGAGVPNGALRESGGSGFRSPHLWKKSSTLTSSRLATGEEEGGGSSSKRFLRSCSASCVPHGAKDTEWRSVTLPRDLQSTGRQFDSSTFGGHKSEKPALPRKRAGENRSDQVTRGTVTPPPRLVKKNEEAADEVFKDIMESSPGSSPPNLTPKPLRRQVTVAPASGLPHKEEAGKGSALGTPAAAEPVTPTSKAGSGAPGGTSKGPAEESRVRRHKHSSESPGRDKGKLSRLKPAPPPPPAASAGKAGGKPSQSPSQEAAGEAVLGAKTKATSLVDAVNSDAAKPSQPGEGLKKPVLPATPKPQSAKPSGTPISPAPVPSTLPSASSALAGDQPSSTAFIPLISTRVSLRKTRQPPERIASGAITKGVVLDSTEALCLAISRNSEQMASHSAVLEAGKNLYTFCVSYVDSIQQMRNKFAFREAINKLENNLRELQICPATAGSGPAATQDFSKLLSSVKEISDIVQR

## CN1CCN(C(=O)c2ccc(Nc3nc(Nc4ccccc4)c4ncn(CC5CC5)c4n3)cc2)CC1 [Compound 8a, (4-((9-(Cyclopropylmethyl)-6-(phenylamino)-9H-purin-2-yl)amino)phenyl)(4-methylpiperazin-1-yl)methanone]
Bcr-Abl1
  IC50: 1.21 ± 0.11 µM
BTK; [1]
  IC50: 6.01 ± 0.72 µM
FLT3-ITD; [2]
  IC50: 1.95 µM
Cdk-2/cyclin E
  IC50: 31.4 ± 3.18 µM
K562
  GI50: 8.91 ± 1.64 µM
HL-60
  GI50: 6.64 ± 1.42 µM
MV4-11
  GI50: 1.24 ± 0.21 µM
Ramos
  GI50: 16.6 ± 0.67 µM
CEM
  GI50: > 25 µM
other
  melting point: 164 to 165 °C

## CCCCCn1cnc2c(Nc3cccc(F)c3)nc(Nc3ccc(N4CCN(C)CC4)cc3)nc21 [Compound 5e, N^6-(3-Fluorophenyl)-N^2-(4-(4-methylpiperazin-1-yl)phenyl)-9-pentyl-9H-purine-2,6-diamine]
Bcr-Abl1
  IC50: 0.65 ± 0.07 µM
BTK; [1]
  IC50: < 0.58 µM and 0.36 µM
FLT3-ITD; [2]
  IC50: 0.5 µM
Cdk-2/cyclin E
  IC50: 19 ± 8.98 µM
K562
  GI50: 2.14 ± 0.8 µM
HL-60
  GI50: 1.31 µM
MV4-11
  GI50: 1.31 ± 0.71 µM
Ramos
  GI50: 11.6 ± 1.46 µM
CEM
  GI50: 19 ± 3.89 µM
other
  melting point: 147.1 to 149.3 °C

## CCCCCCn1cnc2c(Nc3ccc(F)c(F)c3)nc(Nc3ccc(N4CCN(C)CC4)cc3)nc21 [Compound 5i, N^6-(3,4-Difluorophenyl)-9-hexyl-N^2-(4-(4-methylpiperazin-1-yl)phenyl)-9H-purine-2,6-diamine]
Bcr-Abl1
  IC50: 34 ± 1.63 µM
BTK; [1]
  IC50: < 0.58 µM and 0.46 µM
FLT3-ITD; [2]
  IC50: 2.74 µM
Cdk-2/cyclin E
  IC50: 47.3 ± 31.6 µM
K562
  GI50: > 25 µM
HL-60
  GI50: 3.91 ± 0.07 µM
MV4-11
  GI50: 3.86 ± 1.08 µM
Ramos
  GI50: > 25 µM
CEM
  GI50: > 25 µM

## CCCCCn1cnc2c(Nc3ccc(F)c(F)c3)nc(Nc3ccc(N4CCN(C)CC4)cc3)nc21 [Compound 5f, N^6-(3,4-Difluorophenyl)-N^2-(4-(4-methylpiperazin-1-yl)phenyl)-9-pentyl-9H-purine-2,6-diamine]
Bcr-Abl1
  IC50: 1.36 ± 0.5 µM
BTK; [1]
  IC50: 0.93 ± 0.14 µM
FLT3-ITD; [2]
  IC50: 1.02 µM
Cdk-2/cyclin E
  IC50: 20.8 ± 3.18 µM
K562
  GI50: > 25 µM
HL-60
  GI50: 3.61 ± 1.02 µM
MV4-11
  GI50: 1.61 ± 0.63 µM
Ramos
  GI50: > 25 µM
CEM
  GI50: > 25 µM

## CN1CCN(c2ccc(Nc3nc(Nc4ccccc4F)c4ncn(CC5CC5)c4n3)cc2)CC1 [Compound 4a, 9-(Cyclopropylmethyl)-N^6-(2-fluorophenyl)-N^2-(4-(4-methylpiperazin-1-yl)phenyl)-9H-purine-2,6-diamine]
Bcr-Abl1
  IC50: 4.19 ± 0.83 µM
BTK; [1]
  IC50: 14.7 ± 1.48 µM
Cdk-2/cyclin E
  IC50: 14 ± 2.33 µM
K562
  GI50: 21.3 ± 0.63 µM
HL-60
  GI50: 1.82 ± 0.35 µM
MV4-11
  GI50: 6.47 ± 1.82 µM
Ramos
  GI50: 15.6 ± 0.88 µM
CEM
  GI50: 17.1 ± 0.4 µM
other
  melting point: 149 to 152 °C

## O=C(Cl)c1ccc([N+](=O)[O-])cc1 [Compound 6]
BTK; [3]
  IC50: 4.12 µM
FLT3-ITD; [4]
  IC50: 2.32 µM

## Clc1nc(Cl)c2[nH]cnc2n1 [Compound 1]
BTK; [3]
  IC50: 14.7 µM
FLT3-ITD; [4]
  IC50: 19.4 µM

## Clc1nc(Nc2ccccc2)c2ccn(CC3CC3)c2n1 [Compound 11]
BTK; [3]
  IC50: 1.16 µM
FLT3-ITD; [4]
  IC50: 1.16 µM

## CN1CCN(C(=O)c2ccc(Nc3nc(Nc4cccc(F)c4)c4ncn(CC5CC5)c4n3)cc2)CC1 [Compound 8b, (4-((9-(Cyclopropylmethyl)-6-((3-fluorophenyl)amino)-9H-purin-2-yl)amino)phenyl)(4-methylpiperazin-1-yl)methanone]
BTK; [1]
  IC50: 1.72 ± 0.19 µM
FLT3-ITD; [2]
  IC50: 1.6 µM
K562
  GI50: 4.91 ± 0.01 µM
HL-60
  GI50: 1.08 ± 0.1 µM
MV4-11
  GI50: 1.48 ± 0.54 µM
Ramos
  GI50: 7.07 ± 0.32 µM
CEM
  GI50: 20.2 ± 3.73 µM
other
  melting point: 150 to 151 °C
